Assay results published in ChEMBL document CHEMBL1141466, “Potent memapsin 2 (beta-secretase) inhibitors: design, synthesis, protein-ligand X-ray structure, and in vivo evaluation” (Bioorg Med Chem Lett, 2008).

Legend:
Beta-secretase 1 [1] = target: T1, Beta-secretase 1 (Homo sapiens, UniProt P56817)
Description: Binding affinity to recombinant memapsin 2

Beta-secretase 1 [2] = target: T1, Beta-secretase 1; remark: listed apart in the source
Description: Inhibition of memapsin 2 expressed in CHO cells

T1 sequence (P56817 whole entry): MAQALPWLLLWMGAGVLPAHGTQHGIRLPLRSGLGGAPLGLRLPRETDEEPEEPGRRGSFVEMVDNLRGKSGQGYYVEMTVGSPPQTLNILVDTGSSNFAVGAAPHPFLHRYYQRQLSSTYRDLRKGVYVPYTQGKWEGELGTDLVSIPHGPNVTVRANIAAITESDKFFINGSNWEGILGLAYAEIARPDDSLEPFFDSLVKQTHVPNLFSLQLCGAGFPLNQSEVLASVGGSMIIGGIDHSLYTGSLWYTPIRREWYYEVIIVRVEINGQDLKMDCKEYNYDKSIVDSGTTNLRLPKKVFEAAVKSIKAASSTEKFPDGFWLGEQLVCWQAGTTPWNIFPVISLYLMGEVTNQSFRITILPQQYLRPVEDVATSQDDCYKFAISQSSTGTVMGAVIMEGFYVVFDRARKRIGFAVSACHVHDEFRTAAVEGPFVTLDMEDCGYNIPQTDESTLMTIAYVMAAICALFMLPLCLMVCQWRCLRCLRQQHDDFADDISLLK

Compound | Ki (Beta-secretase 1 [1]) [nM] | IC50 (Beta-secretase 1 [2]) [nM]
COc1cccc(CNC[C@@H](O)[C@H](Cc2ccccc2)NC(=O)[C@H](CS(C)(=O)=O)NC(=O)OCc2nc(C)oc2C)c1 | 15000 | –
CC(C)NC(=O)[C@@H](NC[C@@H](O)[C@H](Cc1ccccc1)NC(=O)c1cc(C(=O)N[C@H](C)c2ccccc2)cc(N(C)S(C)(=O)=O)c1)C(C)C | 564 | –
COc1cccc(CNC[C@@H](O)[C@H](Cc2ccccc2)NC(=O)c2cc(C(=O)NC(C)c3nc(C)oc3C)cc(N(C)S(C)(=O)=O)c2)c1 (some centres not stated) | 894 | –
COc1cccc(CNC[C@@H](O)[C@H](Cc2ccccc2)NC(=O)c2cc(C(=O)NCc3nc(C)oc3C)cc(N(C)S(C)(=O)=O)c2)c1 | 552 | –
COc1cccc(CNC[C@@H](O)[C@H](CC(C)C)NC(=O)c2cc(C(=O)N[C@H](C)c3ccccc3)cc(N(C)S(C)(=O)=O)c2)c1 | 916 | –

The next compounds have a lower Ki (Beta-secretase 1 [1]) than those just listed; values first:

Ki (Beta-secretase 1 [1]) [nM] | IC50 (Beta-secretase 1 [2]) [nM] | Compound
425 | 1100 | CC(C)NC[C@@H](O)[C@H](Cc1ccccc1)NC(=O)c1cc(C(=O)N[C@H](C)c2ccccc2)cc(N(C)S(C)(=O)=O)c1
0.12 | – | Cc1nc(COC(=O)N[C@@H](CS(C)(=O)=O)C(=O)N[C@@H](CC(C)C)[C@@H](O)C[C@@H](C)C(=O)N[C@H](C(=O)NC(C)(C)C)C(C)C)c(C)o1
230 | 620 | C[C@@H](NC(=O)c1cc(C(=O)N[C@@H](Cc2ccccc2)[C@H](O)CNCc2ccc3cc[nH]c3c2)cc(N(C)S(C)(=O)=O)c1)c1ccccc1
27 | 200 | C[C@@H](NC(=O)c1cc(C(=O)N[C@@H](Cc2ccccc2)[C@H](O)CNCc2ccc3ccn(S(C)(=O)=O)c3c2)cc(N(C)S(C)(=O)=O)c1)c1ccccc1
